Laboratory results from patent publication US20060067942A1, “Pharmaceutical agent comprising amino acids, peptides, proteins and/or fractions and fragments thereof and the use of same in the prophylaxis and treatment of immune system deficiency in humans and animals” (priority 2004, published 2006).
Several values for one entry are separate records, joined by “and”; a condition that tells them apart may be missing. Identical values can stand only once.

Key:
T-lymphocytes = experiment: E-rosette test in immunosuppressed guinea pigs; format: in vivo, guinea pig
Text: Guinea pig's T-lymphocytes bind rabbits erythrocytes on their surface, this ability is used to observe the dynamics of changes in the number of T-lymphocytes. The number of the human T-lymphocytes is one of the parameters of evaluation of cellular immunity in the clinical immunology. […] The first step was to determine the number of T-lymphocytes by using the E-rosette assay in the 8 Guinea pigs in the weight range 260-310 g. The second step was to decrease the number of T-lymphocytes. This was done using the immunosuppressant Azathioprin. The application of this is per os for 7 of the guinea pigs. The 8th guinea pig will be used as a control without application of the immunosuppressant. The second determination of the T-lymphocytes followed 7 days after the application of the immunosuppressant. […] One of the suppressed guinea pigs was used as a control suppressed animal.
The level of E-rosettes was determined on the first day from the blood of 12 experimental guinea pigs. On the second day, 8 animals (group A) were treated i.p. with oxoplatin as an anti-tumor agent and 3 animals (group B) were treated with double the dose of oxoplatin. The final guinea pig was used as a control. The level of E-rosettes was determined 5 days later.
The level of the E-rosettes in 3 guinea pigs with low values of E-rosettes was determined again at day 35.
The level of E-rosettes in 9 experimental guinea pigs was determined on the 1st day. On the second day 8 animals were injected with Campto and one was without application. The level of E-rosettes in all guinea pigs was determined on the 7th day of experiment. […] On day 22 of the experiment one guinea pig had E-rosette production determined. The level of E-rosettes was then determined again in all animals on day 29.
The level of E-rosettes in 9 experimental guinea pigs was determined on the first day. On the second day, 8 guinea pigs were injected with Taxol. The level of E-rosettes was determined again on the 7th day of experimentation. […] The level of E-rosettes in all guinea pigs was determined on the 29th day.
The level of the E-rosettes in 10 experimental guinea pigs was determined on the first day. On the second day, 9 guinea pigs were injected with Eloxatin. The level of E-rosettes were determined on the 7th day of experimentation. […] The final level of E-rosettes was then determined on the 30th day of experimentation.

human PBMC = experiment: Lymphocyte proliferation in vitro (Stimulation index, Thymidine uptake); format: cell-based; conditions: PHA positive control
Experimental: T-lymphocyte activation can be assessed directly by: • a) De novo expression or increase of activation markers such as CD69 on T lymphocytes (CD69+/CD4+ cells) after 4 hours activation • b) Measuring blastogenesis and/or proliferation of cells to phytomitogens (such as Phytohemagglutinin, PHA), common antigens or other substances evaluated 72 hours after activation • c) Antigen-induced release of cytokines (in this case the preparation-induced intra-cellular expression of IFNg in CD4+ T lymphocytes) Methods
Heparinized venous blood from 5 healthy volunteers (women, aged 35-52 years) has been used for the performance of the following investigations:
In vitro proliferation of PBMC from 5 healthy individuals is presented as Stimulation index in Table 2. The PHA-induced proliferation, used here as a positive control, verified good culturing conditions, as it is shown mean proliferation index 184.5±142.8 at 72 hours. As it is expected, at 6 day SI of PHA stimulation is dropping (it is a mitogen), but the cell cultures were intact.
That is why we tested it's stimulation activity at 3 days and 6 days activation period.

CD4+ T lymphocytes = experiment: Intracellular staining for IFNg and CD69 expression on CD4+ lymphocytes in whole blood; format: cell-based, human; conditions: for % CD69+ cells / % CD69+/IFNg+ cells: CD4+ lymphocytes, 0.5 ml blood + 50 μg preparation or 10 μg PHA
Experimental: Briefly, whole peripheral blood was collected into sodium heparin. […] Addition of 10 μl Brefeldin A (Sigma, 10 μg/ml) to all tubes. Incubation for new 4 hours at 37° C., 5% CO2. Brefeldin A is an agent which arrest produced cytokine intracellular. Surface and intracellular staining for T-lymphocytes was performed according to the manufacturer rules with monoclonal antibodies against CD3, CD4, CD69 and IFNg from FastImmune CD4 Intracellular Cytokine Detection kit (BD). Red blood cells were lysed with FACS Lysing solution for 10 min. at room temperature. Permeabilization of lymphocytes was achieved using FACS Permeabilizing solution (BD) for 10 min. The activation and intracellular cytokine expression was evaluated by the staining with CD4/CD69/IGNg monoclonal antibodies

CCc1c2c(nc3ccc(OC(=O)N4CCC(N5CCCCC5)CC4)cc13)-c1cc3c(c(=O)n1C2)COC(=O)[C@]3(O)CC [Campto]
decrease of production of E-rosettes after application of Campto (T-lymphocytes; Experiment 2, injected day 2, determined 7th day): 22.7%

O=C1[O][Pt]2([NH][C@@H]3CCCC[C@H]3[NH]2)[O]C1=O [Eloxatin]
decrease of formation of E-rosettes after application of Eloxatin (T-lymphocytes; Experiment 4, injected day 2, determined 7th day): 22%

CC(=O)O[C@H]1C(=O)[C@@]2(C)[C@H]([C@H](OC(=O)c3ccccc3)[C@]3(O)C[C@H](OC(=O)[C@H](O)[C@@H](NC(=O)c4ccccc4)c4ccccc4)C(C)=C1C3(C)C)[C@]1(OC(C)=O)CO[C@@H]1C[C@@H]2O [Taxol]
decrease of production of E-rosettes after application of Taxol (T-lymphocytes; Experiment 3, injected day 2, determined 7th day): 16%

N.N.[Cl-].[Cl-].[OH-].[OH-].[Pt+4] [oxoplatin]
decrease of production of E-rosettes after application of oxoplatin (T-lymphocytes; Experiment 1, i.p., determined 5 days later): 27.4%

Phytohemagglutinin [PHA]
Stimulation index (PBMC proliferation) (human PBMC; Mean of donors, 3 days (72 hours)): 184.5±142.8 | Stimulation index (PBMC proliferation) (human PBMC; Mean of donors, 3 days (72 hours), listed as PHA(+)): 184.33 | Stimulation index (PBMC proliferation) (human PBMC; Mean of donors, 6 days): 51.97 | Stimulation index (PBMC proliferation) (human PBMC; donor four, 3 days): 77.3 | Stimulation index (PBMC proliferation) (human PBMC; donor four, 6 days): 61.09 | Stimulation index (PBMC proliferation) (human PBMC; donor one, 3 days): 417 | Stimulation index (PBMC proliferation) (human PBMC; donor one, 6 days): 33 | Stimulation index (PBMC proliferation) (human PBMC; donor six, 3 days): 114.65 | Stimulation index (PBMC proliferation) (human PBMC; donor six, 6 days): 25.11 | Stimulation index (PBMC proliferation) (human PBMC; donor three, 3 days): 87.38 | Stimulation index (PBMC proliferation) (human PBMC; donor three, 6 days): 119.9 | Stimulation index (PBMC proliferation) (human PBMC; donor two, 3 days): 225.3 | Stimulation index (PBMC proliferation) (human PBMC; donor two, 6 days): 20.74 | % CD69+ cells (CD4+ T lymphocytes; Mean of 6 donors): 83.54% | % CD69+/IFNg+ cells (CD4+ T lymphocytes; Mean of 6 donors): 4.97±5.75% and 4.97% | PHA induced % CD69+ cells (CD4+ T lymphocytes; after 4 hours stimulation, healthy individuals): over 80% | % CD69+ cells (CD4+ T lymphocytes; donor five): 78.46% | % CD69+/IFNg+ cells (CD4+ T lymphocytes; donor five): 2.45% | % CD69+ cells (CD4+ T lymphocytes; donor four): 87.87% | % CD69+/IFNg+ cells (CD4+ T lymphocytes; donor four): 2.87% | % CD69+ cells (CD4+ T lymphocytes; donor one): 89.58% | % CD69+/IFNg+ cells (CD4+ T lymphocytes; donor one): 0.49% | % CD69+ cells (CD4+ T lymphocytes; donor six): 90.03% | % CD69+/IFNg+ cells (CD4+ T lymphocytes; donor six): 16.42% | % CD69+ cells (CD4+ T lymphocytes; donor three): 86.39% | % CD69+/IFNg+ cells (CD4+ T lymphocytes; donor three): 4.39% | % CD69+ cells (CD4+ T lymphocytes; donor two): 68.91% | % CD69+/IFNg+ cells (CD4+ T lymphocytes; donor two): 3.18%
